What was measured:
[1] = tested on: DAM-related genes in 5xFAD mouse brain; assay: nCounter NanoString neuropathology gene expression panel; type: in vivo
Description: (§1) diAcCA or control vehicle was administered three times per week for 3 months to 5xFAD Tg or WT littermate control mice starting at approximately 5 months of age by oral gavage (designated here as “per os” or PO). Three different doses were used (10 mg/kg, 20 mg/kg, or 50 mg/kg). diAcCA was dissolved in olive oil vehicle, a non-polar organic solvent. For vehicle control, we administered olive oil alone. A total of 45 animals were used in this study, with 7–8 animals in each group.
The hippocampus/cortex were isolated from the brain and RNA isolation was performed immediately using the Quick-RNA Miniprep kit (76211-580, VWR, Radnor, PA, USA). RNA was then analyzed by the Salk Institute Single-Cell & Spatial Omics Core for the nCounter Neuropathology panel (NanoString, Bruker Spatial Biology, Inc., Seattle, WA, USA). The list of genes included in the NanoString analysis is provided as Supplementary Information (Table S3). The analysis was performed using the following packages on R studio software version 4.2.3: readr 2.1.5, dplyr 1.1.4, clusterProfiler 4.6.2, org.mm.eg.db 3.16.0, ggplot2 3.5.1, and stringr 1.5.1.
To elucidate the molecular underpinnings of the effect of diAcCA on neuroinflammation, we next analyzed disease-associated microglia (DAM) signatures in WT and 5xFAD mouse brains using nCounter® biomarker analysis (NanoString, Bruker Spatial Biology, Inc., […]). RNA was isolated from the hippocampus/cortex of WT and 5xFAD mice that had received three-month vehicle or diAcCA treatment, and a NanoString neuropathology gene expression panel was performed (Figure 4).

5xFAD mice = assay: Morris water maze probe test; type: in vivo, mouse; conditions: for Morris water maze probe test, time in the platform quadrant zone: compared to WT control mice; for Morris water maze probe test, percentage of time in the target quadrant / Morris water maze probe test, time to first enter the platform zone: compared to WT controls
Description: as §1
The Morris water maze test is used to evaluate spatial learning and memory skills in rodents. In the experimental setup, mice are placed in a circular tank containing opaque water maintained at a consistent temperature of 21 ± 1 °C. The mice undergo 2 trials each day for a period of 4 days during which they are trained to find a hidden platform placed somewhere within the tank. The platform acts as an escape for the mice from swimming. The starting point of the mice in the tank is randomized; however, the location of the platform remains unchanged for a given mouse. After entering the water, the mice are given a maximum of 90 s to navigate to the platform and climb it. If a mouse is unable to find the platform in this duration, the experimenter offers gentle guidance to help it in reaching the platform. On day 5, after the training phase is over, a “probe trial” is conducted in which the platform is removed from the water maze. The mice are allowed to swim for a period of 60 s to observe if they learned to use spatial cues to navigate to safety (i.e., swim to the area in which the platform had been located and then spend more time in this quadrant of the pool than the other quadrants). After each trial, the mice are given a 10 min rest period in which they are transferred to a new cage with a warm towel. Data are analyzed using Noldus EthoVision software (version XT 17, Leesburg, VA, USA) with parameters measured for “latency to escape” for the acquisition trials and “quadrant time” as well as “distance and velocity of swimming” in the probe test.
To delineate the effect of diAcCA on spatial memory, we performed the Morris water maze probe test, a widely used assessment for evaluating hippocampal-dependent memory. After diAcCA or vehicle treatment of WT and 5xFAD mice for 3 months starting at 5 months of age, the animals were initially trained for […] to ensure learning of the spatial memory task, i.e., swimming to the location of a hidden platform in the opaque water maze that the mice could stand on. Subsequently, their memory for the task was measured using the “probe test”, monitoring how well each mouse recalled the location of the platform once it had been removed from the swimming tank. This was assessed by the amount of time spent in the proper quadrant of the tank that previously housed the platform (the “target” quadrant) vs. other quadrants.

[2] = Shelf life / stability of the compound over time; type: physicochemical; conditions: storage (CA: even if kept in the dark and cold)

For `CC(=O)Oc1c(C(C)C)cc2c(c1OC(C)=O)[C@@]1(C(=O)O)CCCC(C)(C)[C@@H]1CC2` [diAcCA], the “expression of DAM genes C3 and Igf1” value ([1]; 5xFAD brain, 20 or 50 mg/kg vs vehicle, n = 3) was “significantly downregulated”, the “DAM signature (heatmap of DAM-related genes)” value ([1]; 5xFAD hippocampus/cortex RNA, three-month treatment, n = 3) was “dose-dependent decrease in DAM signature” and the “GO biological pathway analysis of upregulated and downregulated genes” value ([1]; diAcCA-treated 5xFAD brain vs vehicle-treated) was “upregulation of genes enriched in pathways associated with neuroprotection”. For the same compound, the “Morris water maze probe test, time in the platform quadrant zone” value (5xFAD mice; 10 mg/kg and 20 mg/kg) was “spent significantly less time in the platform quadrant zone compared to WT control mice”, the “Morris water maze probe test, percentage of time in the target quadrant” value (5xFAD mice; 10 mg/kg) was “spent significantly less time in the target quadrant” and the “Morris water maze probe test, time to first enter the platform zone” value (5xFAD mice; 10 mg/kg) was “took significantly more time to first enter the platform zone compared to WT controls”. For the same compound, the “Morris water maze probe test, percentage of time in the target quadrant” value (5xFAD mice; 20 mg/kg and 50 mg/kg) was “spent a similar percentage of time in the target and other quadrants as the WT controls”, the “Morris water maze probe test, time to first enter the platform zone” value (5xFAD mice; 20 mg/kg and 50 mg/kg) was “took a similar amount of time compared to WT controls” and the “Morris water maze probe test, time in the platform quadrant zone” value (5xFAD mice; 50 mg/kg) was “spent similar amount of time in the platform quadrant as WT control mice”. For the same compound, the “Morris water maze probe test, performance (time in target quadrant, time to reach platform zone)” value (5xFAD mice; ≥20 mg/kg, or, for total time spent in the target quadrant, 50 mg/kg) was “performed significantly better”, the “shelf life / stability over time” value [2] was “stable in our hands for over two years” and the “shelf life / stability over time” value ([2]; listed as diAcCa) was “stable shelf life (of over two years)”.

Source: paper PMC11939361, “diAcCA, a Pro-Drug for Carnosic Acid That Activates the Nrf2 Transcriptional Pathway, Shows Efficacy in the 5xFAD Transgenic Mouse Model of Alzheimer’s Disease” (Antioxidants, 2025)
